This passage reports EC50 results from patent US11013726B2 (Arbutus Biopharma Corporation, priority 2016, dated 2021).

SMILES strings stand for the structures.

The test system of this assay is HBsAg. In words: HBsAg assay. The class given is cell-based, hepatitis B virus. As to conditions: Hepatitis B virus, HepG2.2.15, 144 h, read-out: sAg EC50, μM, HepG2.2.15 cells, day 6. The procedure:
Inhibition of HBsAg was determined in HepG2.2.15 cells. Cells were maintained in culture medium containing 10% fetal calf serum, […], Glutamine, penicillin/streptomycin. Cells were seeded in 96-well collagen-coated plate at a density of 30,000 cells/well. Serially diluted compounds were added to cells next day at the final DMSO concentration of 0.5%. Cells were incubated with compounds for 2-3 days, after which medium was removed. Fresh medium containing compounds was added to cells for additional 3-4 days. At day 6 after exposure of compounds, supernatant was collected, the HBsAg immunoassay (microplate-based chemiluminescence immunoassay kits, CLIA, Autobio Diagnosics Co., Zhengzhou, China, Catalog # CL0310-2) was used to determine the level of HBsAg according to manufactory instruction. Dose-response curves were generated and the EC50 value (effective concentrations that achieved 50% inhibitory effect) were determined using XLfit software. In addition, cells were seeded at a density of 5,000 cells/well for determination of cell viability in the presence and absence of compounds by using CellTiter-Glo reagent (Promega). Tables 1-3 show EC50 values obtained by the HBsAg assay for selected compounds.

Usually EC50 stands for the concentration that produces a half-maximal response. `CC(C)[C@@H]1COc2cc(OCCCNC(=O)OC(C)(C)C)c(C3CC3)cc2-c2cc(=O)c(C(=O)O)cn21` [Example 53, (R)-3-(3-((tert-Butoxycarbonyl)amino)propoxy)-2-cyclopropyl-7-isopropyl-11-oxo-6,7-dihydro-11H-benzo[f]pyrido[1,2-d][1,4]oxazepine-10-carboxylic acid]: the EC50 came to 0.013 µM. As for `CC(C)[C@@H]1COc2cc(OCC(F)(F)F)c(C3CC3)cc2-c2cc(=O)c(C(=O)O)cn21` [Example 54, (R)-2-Cyclopropyl-7-isopropyl-11-oxo-3-(2,2,2-trifluoroethoxy)-6,7-dihydro-11H-benzo[f]pyrido[1,2-d][1,4]oxazepine-10-carboxylic acid], the EC50 is 0.012 µM. For the compound `CCOCCOc1cc2c(cc1C)-c1cc(=O)c(C(=O)O)cn1[C@H](C(C)C)CO2` [Example 55, (R)-3-(2-Ethoxyethoxy)-7-isopropyl-2-methyl-11-oxo-6,7-dihydro-11H-benzo[f]pyrido[1,2-d][1,4]oxazepine-10-carboxylic acid], the concentration for a half-maximal effect (EC50) amounted to 0.13 µM.

As to `CCc1cc2c(cc1OCCCO)OC[C@@H](C(C)C)n1cc(C(=O)O)c(=O)cc1-2` [Example 56, (R)-2-Ethyl-3-(3-hydroxypropoxy)-7-isopropyl-11-oxo-6,7-dihydro-111H-benzo[f]pyrido[1,2-d][1,4]oxazepine-10-carboxylic acid], the concentration giving a half-maximal response (EC50) amounted to 0.026 µM. In the case of `CCOCCOc1cc2c(cc1CC)-c1cc(=O)c(C(=O)O)cn1[C@H](C(C)C)CO2` [Example 57, (R)-3-(2-Ethoxyethoxy)-2-ethyl-7-isopropyl-11-oxo-6,7-dihydro-111H-benzo[f]pyrido[1,2-d][1,4]oxazepine-10-carboxylic acid], the EC50 was 0.034 µM. In the case of `CCc1cc2c(cc1OCC(F)(F)F)OC[C@@H](C(C)C)n1cc(C(=O)O)c(=O)cc1-2` [Example 58, (R)-2-Ethyl-7-isopropyl-11-oxo-3-(2,2,2-trifluoroethoxy)-6,7-dihydro-11H-benzo[f]pyrido[1,2-d][1,4]oxazepine-10-carboxylic acid] it was 0.021 µM; in that of `Cc1cc2c(cc1OCC(F)(F)F)OC[C@@H](C(C)C)n1cc(C(=O)O)c(=O)cc1-2` [Example 59, (R)-7-Isopropyl-2-methyl-11-oxo-3-(2,2,2-trifluoroethoxy)-6,7-dihydro-11H-benzo[f]pyrido[1,2-d][1,4]oxazepine-10-carboxylic acid], 0.089 µM. For `Cc1cc2c(cc1OCCCO)OC[C@@H](C(C)C)n1cc(C(=O)O)c(=O)cc1-2` [Example 60, (R)-3-(3-Hydroxypropoxy)-7-isopropyl-2-methyl-11-oxo-6,7-dihydro-11H-benzo[f]pyrido[1,2-d][1,4]oxazepine-10-carboxylic acid], the EC50 was 0.057 µM. In the case of `COCCCNc1cc2c(cc1Cl)-c1cc(=O)c(C(=O)O)cn1[C@H](C(C)C)CO2` [Example 61, (R)-2-Chloro-7-isopropyl-3-((3-methoxypropyl)amino)-11-oxo-6,7-dihydro-11H-benzo[f]pyrido[1,2-d][1,4]oxazepine-10-carboxylic acid] it was 0.023 µM; in that of `CC(C)[C@@H]1COc2cc(N3CCOCC3)c(Cl)cc2-c2cc(=O)c(C(=O)O)cn21` [Example 62, (R)-2-Chloro-7-isopropyl-3-morpholino-11-oxo-6,7-dihydro-11H-benzo[f]pyrido[1,2-d][1,4]oxazepine-10-carboxylic acid], 0.21 µM. On to `COCCCN(C)c1cc2c(cc1Cl)-c1cc(=O)c(C(=O)O)cn1[C@H](C(C)C)CO2` [Example 63, (R)-2-Chloro-7-isopropyl-3-((3-methoxypropyl)(methyl)amino)-11-oxo-6,7-dihydro-11H-benzo[f]pyrido[1,2-d][1,4]oxazepine-10-carboxylic acid], for which the EC50 was 0.03 µM. In the case of `COCCNc1cc2c(cc1Cl)-c1cc(=O)c(C(=O)O)cn1[C@H](C(C)C)CO2` [Example 64, (R)-2-Chloro-7-isopropyl-3-((2-methoxyethyl)amino)-11-oxo-6,7-dihydro-11H-benzo[f]pyrido[1,2-d][1,4]oxazepine-10-carboxylic acid] it was 0.066 µM. Consider `COCCN(C)c1cc2c(cc1Cl)-c1cc(=O)c(C(=O)O)cn1[C@H](C(C)C)CO2` [Example 65, (R)-2-Chloro-7-isopropyl-3-((2-methoxyethyl)(methyl)amino)-11-oxo-6,7-dihydro-11H-benzo[f]pyrido[1,2-d][1,4]oxazepine-10-carboxylic acid], for which the EC50 was found to be 0.27 µM. As to `COCCCOc1cc2c(nc1Cl)-c1cc(=O)c(C(=O)O)cn1[C@H](C(C)(C)C)CO2` [Example 66, (R)-7-(Tert-butyl)-2-chloro-3-(3-methoxypropoxy)-11-oxo-6,7-dihydro-11H-dipyrido[1,2-d:2′,3′-f][1,4]oxazepine-10-carboxylic acid], the EC50 was 0.002 µM. On to `COCCCOc1cc2c(nc1C1CC1)-c1cc(=O)c(C(=O)O)cn1[C@H](C(C)(C)C)CO2` [Example 67, (R)-7-(Tert-butyl)-2-cyclopropyl-3-(3-methoxypropoxy)-11-oxo-6,7-dihydro-11H-dipyrido[1,2-d:2′,3′-f][1,4]oxazepine-10-carboxylic acid], for which the EC50 came to 0.0009 µM. In the case of `COCCCOc1cc2c(nc1Cl)-c1cc(=O)c(C(=O)O)cn1[C@H](C(C)C)CO2` [Example 68, (R)-2-Chloro-7-isopropyl-3-(3-methoxypropoxy)-11-oxo-6,7-dihydro-11H-dipyrido[1,2-d:2′,3′-f][1,4]oxazepine-10-carboxylic acid] it was 0.017 µM. On to `COCCCOc1cc2c(nc1Cl)-c1cc(=O)c(C(=O)O)cn1C1(CCCCC1)CO2` [Example 69, 2′-Chloro-3′-(3-methoxypropoxy)-1′-oxo-6′H,11′H-spiro[cyclohexane-1,7′-dipyrido[1,2-d:2′,3′-f][1,4]oxazepine]-10′-carboxylic acid], for which the EC50 worked out at 0.021 µM. Regarding `COCCCOc1cc2c(nc1Cl)-c1cc(=O)c(C(=O)O)cn1C1(CCCC1)CO2` [Example 70, 2′-Chloro-3′-(3-methoxypropoxy)-11′-oxo-6′H,11′H-spiro[cyclopentane-1,7′-dipyrido[1,2-d:2′,3′-f][1,4]oxazepine]-10′-carboxylic acid], the EC50 turned out to be 0.041 µM. For `COCCCOc1cc2c(nc1Cl)-c1cc(=O)c(C(=O)O)cn1C1(COC1)CO2` [Example 71, 2-Chloro-3-(3-methoxypropoxy)-1-oxo-6H,11H-spiro[dipyrido[1,2-d:2′,3′-f][1,4]oxazepine-7,3′-oxetane]-10-carboxylic acid], the EC50 is 30 µM. `COCCCOc1cc2c(nc1Cl)-c1cc(=O)c(C(=O)O)cn1C1(CO2)CC(C)(C)C1` [Example 72, 2′-Chloro-3′-(3-methoxypropoxy)-3,3-dimethyl-11′-oxo-6′H,11′H-spiro[cyclobutane-1,7′-dipyrido[1,2-d:2′,3′-f][1,4]oxazepine]-10′-carboxylic acid]: the EC50 is 0.18 µM.

With `COCCCOc1cc2c(nc1Cl)-c1cc(=O)c(C(=O)O)cn1C1(CO2)CC(C)C1` (stereo not shown) [Example 73, 2′-Chloro-3′-(3-methoxypropoxy)-3-methyl-11′-oxo-6′H,11′H-spiro[cyclobutane-1,7′-dipyrido[1,2-d:2′,3′-f][1,4]oxazepine]-10′-carboxylic acid], the EC50 amounted to 0.26 µM. `COCCCOc1cc2c(nc1Cl)-c1cc(=O)c(C(=O)O)cn1C1(CCSCC1)CO2` [Example 74, 2-Chloro-3-(3-methoxypropoxy)-11-oxo-2′,3′,5′,6′-tetrahydro-6H,11H-spiro[dipyrido[1,2-d:2′,3′-f][1,4]oxazepine-7,4′-thiopyran]-10-carboxylic acid]: the EC50 turned out to be 5 µM.

Consider `COc1cc2c(nc1Cl)-c1cc(=O)c(C(=O)O)cn1[C@H](C(C)C)CO2` [Example 75, (R)-2-Chloro-7-isopropyl-3-methoxy-11-oxo-6,7-dihydro-11H-dipyrido[1,2-d:2′,3′-f][1,4]oxazepine-10-carboxylic acid], for which the EC50 amounted to 0.026 µM.

For `CC(C)COc1cc2c(nc1C1CC1)-c1cc(=O)c(C(=O)O)cn1[C@H](C(C)C)CO2` [Example 76, (R)-2-Cyclopropyl-3-isobutoxy-7-isopropyl-11-oxo-6,7-dihydro-11H-dipyrido[1,2-d:2′,3′-f][1,4]oxazepine-10-carboxylic acid], the EC50 amounted to 0.86 µM. With `CC(C)[C@@H]1COc2cc(OCc3ccccc3)c(Cl)nc2-c2cc(=O)c(C(=O)O)cn21` [Example 77, (R)-3-(Benzyloxy)-2-chloro-7-isopropyl-11-oxo-6,7-dihydro-11H-dipyrido[1,2-d:2′,3′-f][1,4]oxazepine-10-carboxylic acid], the EC50 is 3.2 µM.

For the compound `CC(C)[C@@H]1COc2cc(O)c(Cl)nc2-c2cc(=O)c(C(=O)O)cn21` [Example 78, (R)-2-Chloro-3-hydroxy-7-isopropyl-11-oxo-6,7-dihydro-11H-dipyrido[1,2-d:2′,3′-f][1,4]oxazepine-10-carboxylic acid], the EC50 worked out at 5 µM.

For the compound `CC(C)COc1cc2c(nc1Cl)-c1cc(=O)c(C(=O)O)cn1[C@H](C(C)C)CO2` [Example 79, (R)-2-Chloro-3-isobutoxy-7-isopropyl-11-oxo-6,7-dihydro-11H-dipyrido[1,2-d:2′,3′-f][1,4]oxazepine-10-carboxylic acid], the EC50 turned out to be 0.79 µM. For the compound `COCCCOc1cc2c(nc1Cl)-c1cc(=O)c(C(=O)O)cn1[C@H](CCO)CO2` [Example 80, (R)-2-Chloro-7-(2-hydroxyethyl)-3-(3-methoxypropoxy)-11-oxo-6,7-dihydro-11H-dipyrido[1,2-d:2′,3′-f][1,4]oxazepine-10-carboxylic acid], the EC50 was 0.26 µM.
